Laboratory results taken from the Kinase Knowledgebase extract (Sharma et al. 2016).

Columns and labels:
EGFR = EGFR (UniProt P00533); conditions: concentration not given here
EGFR (human) = EGFR (human) (UniProt P00533); conditions: for inhibition: mda-mb-468, concentration not given here; for IC50: mda-mb-468
Sequence of EGFR (human) (P00533 whole entry, looked up): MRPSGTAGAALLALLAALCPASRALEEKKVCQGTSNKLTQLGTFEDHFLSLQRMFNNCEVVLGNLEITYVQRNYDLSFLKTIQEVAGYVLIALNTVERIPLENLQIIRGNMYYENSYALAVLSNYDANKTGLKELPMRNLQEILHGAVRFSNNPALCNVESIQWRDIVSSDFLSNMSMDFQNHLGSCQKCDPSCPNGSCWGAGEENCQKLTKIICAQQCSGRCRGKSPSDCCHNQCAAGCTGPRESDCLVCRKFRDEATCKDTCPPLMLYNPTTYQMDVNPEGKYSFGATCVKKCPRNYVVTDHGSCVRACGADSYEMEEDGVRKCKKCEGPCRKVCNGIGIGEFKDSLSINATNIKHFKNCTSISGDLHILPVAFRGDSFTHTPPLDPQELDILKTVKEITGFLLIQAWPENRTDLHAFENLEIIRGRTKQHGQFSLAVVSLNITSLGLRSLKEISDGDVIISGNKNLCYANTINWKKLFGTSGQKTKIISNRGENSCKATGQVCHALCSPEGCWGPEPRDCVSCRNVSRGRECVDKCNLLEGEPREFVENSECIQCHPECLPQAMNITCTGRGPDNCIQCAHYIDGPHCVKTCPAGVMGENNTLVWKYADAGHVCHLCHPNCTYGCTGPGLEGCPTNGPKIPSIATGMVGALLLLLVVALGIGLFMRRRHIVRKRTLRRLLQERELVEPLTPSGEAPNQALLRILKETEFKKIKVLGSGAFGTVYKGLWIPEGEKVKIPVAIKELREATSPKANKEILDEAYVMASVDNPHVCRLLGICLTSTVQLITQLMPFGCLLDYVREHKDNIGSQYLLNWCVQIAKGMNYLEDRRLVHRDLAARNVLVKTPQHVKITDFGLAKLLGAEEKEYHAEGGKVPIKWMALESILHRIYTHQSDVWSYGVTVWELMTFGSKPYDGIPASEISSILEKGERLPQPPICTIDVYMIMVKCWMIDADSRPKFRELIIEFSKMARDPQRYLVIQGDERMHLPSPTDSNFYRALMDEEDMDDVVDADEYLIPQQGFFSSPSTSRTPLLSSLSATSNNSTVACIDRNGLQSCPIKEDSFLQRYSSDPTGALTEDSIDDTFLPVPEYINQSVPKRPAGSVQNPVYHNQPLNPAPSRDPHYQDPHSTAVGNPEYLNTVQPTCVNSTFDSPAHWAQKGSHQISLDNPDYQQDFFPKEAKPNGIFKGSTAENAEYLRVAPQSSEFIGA

Sequence of EGFR (P00533 whole entry, looked up): as above

Row | inhibition (EGFR) [%] | inhibition (EGFR (human)) [%] | IC50 (EGFR (human)) [µM] | Compound
1 | 18.3 | 28.6 | – | O=[N+]([O-])c1ccc(Nc2ccc(Cl)cc2)c2c(O)ncnc12
2 | 21.1 | – | 4.2 | O=[N+]([O-])c1ccc(Nc2ccc(OCc3ccccc3)cc2)c2c(O)ncnc12
3 | 3.9 | 32.3 | – | CCOc1ccc([N+](=O)[O-])c2ncnc(O)c12
4 | 0 | 15.2 | – | Cc1cccc(Nc2ccc([N+](=O)[O-])c3ncnc(O)c23)c1
5 | 17.1 | 32.5 | > 10 | O=[N+]([O-])c1ccc(Nc2cccc(Cl)c2)c2c(O)ncnc12
6 | 12.2 | 75.5 | < 0.01 | COc1ccc(Nc2ccc([N+](=O)[O-])c3ncnc(O)c23)cc1
7 | 28 | – | – | COC(=O)C#Cc1ccc([N+](=O)[O-])cc1
8 | 17.7 | – | 0.48 | O=[N+]([O-])c1ccc(Nc2ccccc2)c2c(O)ncnc12
9 | 0 | 35.8 | – | COc1ccc([N+](=O)[O-])c2ncnc(O)c12
10 | 0 | – | 4 | Nc1ccc(Nc2ccc([N+](=O)[O-])c3ncnc(O)c23)cc1

Row | Compound | inhibition (EGFR) [%] | inhibition (EGFR (human)) [%] | IC50 (EGFR (human)) [µM]
11 | CSCC[C@@H](Nc1ccc([N+](=O)[O-])c2ncnc(O)c12)C(=O)O | 5.6 | 19.9 | –
12 | O=[N+]([O-])c1ccc(N2CCCC2)c2c(O)ncnc12 | 0 | 23.3 | –
13 | O=[N+]([O-])c1ccc(NCc2ccccc2)c2c(O)ncnc12 | 5.2 | 12.1 | –
14 | O=C(O)[C@H](Nc1ccc([N+](=O)[O-])c2ncnc(O)c12)c1ccccc1 | 6.5 | 29.2 | –
15 | O=[N+]([O-])c1ccc(N2CC=CC2)c2c(O)ncnc12 | 7.9 | 34.6 | –
